Experimental data published in US6887896B1, “7-[(7-Alkoxy)-chrom-3-en-6-yl]-heptatrienoic acid and 7-[(3-alkoxy)-5,6-dihydronaphthalen-2-yl]-heptatrienoic acid derivatives having serum glucose reducing activity” (Allergan, Inc., priority 2003, dated 2005).

What was measured:
RXRγ [1] = biological target: T1, RXRγ (UniProt P28705); experiment: holoreceptor transactivation assay, RXRγ; type: cell-based; conditions: for EC50: holoreceptor transactivation, read-out: RXR Trans. EC50 γ; for RXR Trans. efficacy (number in parentheses) γ: percentage compared to the standard compound
T1 sequence (P28705 1-463): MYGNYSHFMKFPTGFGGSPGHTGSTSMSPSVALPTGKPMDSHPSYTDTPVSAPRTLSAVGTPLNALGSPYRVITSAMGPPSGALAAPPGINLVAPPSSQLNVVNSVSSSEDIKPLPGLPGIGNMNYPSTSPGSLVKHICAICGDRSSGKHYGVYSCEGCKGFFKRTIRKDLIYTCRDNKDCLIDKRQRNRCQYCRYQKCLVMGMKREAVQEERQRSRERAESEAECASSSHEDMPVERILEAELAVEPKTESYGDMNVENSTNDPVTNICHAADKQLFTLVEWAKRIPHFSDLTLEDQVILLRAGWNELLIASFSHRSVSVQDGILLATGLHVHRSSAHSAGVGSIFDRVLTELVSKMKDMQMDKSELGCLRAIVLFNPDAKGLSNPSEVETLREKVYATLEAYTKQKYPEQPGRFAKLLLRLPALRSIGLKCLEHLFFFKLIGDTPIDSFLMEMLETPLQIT
From the text: (§1) Specifically, one such assay is a chimeric receptor transactivation assay which tests for agonist-like activity in the R RAPE and RAR7 receptor subtypes, and which is based on work published by Feigner, P. L. and Holm, M (1989) Focus, 112 is described in detail in U.S. Pat. No. 5,455,265. The specification of U.S. Pat. No. 5,455,265 is hereby expressly incorporated by reference. A holoreceptor transactivation assay and a ligand binding assay which measure the antagonist/agonist like activity of the compounds of the invention, or their ability to bind to the several retinoid receptor subtypes, respectively, are described in published PCT Application No. WO WO93/11755 (particularly on pages 30-33 and 37-41) published on Jun. 24, 1993, the specification of which is also incorporated herein by reference. A detailed experimental procedure for holoreceptor transactivations has been described by Heyman et al. Cell 68, 397-406, (1992); Allegretto et al. J. Biol. Chem. 268, 26625-26633, and Mangelsdorf et al. The Retinoids: Biology, Chemistry and Medicine, pp 319-349, Raven Press Ltd., New York, which are expressly incorporated herein by reference. The results obtained in this assay are expressed in EC50 numbers, as they are also in the chimeric receptor transactivation assay. The results of the ligand binding assay are expressed in Ki numbers. (See Cheng et al. Biochemical Pharmacology Vol. 22 pp 3099-3108, expressly incorporated herein by reference.)
(§2) Efficacy in a transactivation assay is expressed as a percentage of the maximum potency attained by the compound compared to a standard which, in this case, is the compound named (2E,4E,1′S,2′S)-3-methyl-5-[2′-methyl-2′-(5,5,8,8-tetramethyl-5,6,7,8-tetrahydro-naphthalen-2-yl)-cyclopropyl]-penta-2,4-dienoic acid. This standard compound is described in U.S. Pat. No. 6,114,533.
(§3) The specification of this application for patent is organized in several sections in accordance with structural Formulas A through F each of which discloses a group of preferred compounds within the scope of the invention. Tables that disclose the activity of certain exemplary compounds of the invention in the above-described RXR receptor transactivation and binding assays are found in the corresponding sections. […] The transactivation data pertaining to the activation of RXR receptors were obtained in the holoreceptor assay.
(§4) Generally speaking, in the tables disclosing the results of transactivation and binding assays the numbers in parentheses indicate efficacy as a percentage compared to the standard compound, (2E,4E,1′S,2′S)-3-methyl-5-[2′-methyl-2′-(5,5,8,8-tetramethyl-5,6,7,8-tetrahydro-naphthalen-2-yl)cyclopropyl]-penta-2,4-dienoic acid and the other numbers indicate the measured EC50 and K; in nanomolar concentration.

RARγ = biological target: T2, RARγ (Homo sapiens, UniProt P13631); experiment: chimeric receptor transactivation assay, RARγ; type: cell-based; conditions: read-out: RAR Trans. EC50 γ
T2 sequence (P13631 185-419 limits assumed): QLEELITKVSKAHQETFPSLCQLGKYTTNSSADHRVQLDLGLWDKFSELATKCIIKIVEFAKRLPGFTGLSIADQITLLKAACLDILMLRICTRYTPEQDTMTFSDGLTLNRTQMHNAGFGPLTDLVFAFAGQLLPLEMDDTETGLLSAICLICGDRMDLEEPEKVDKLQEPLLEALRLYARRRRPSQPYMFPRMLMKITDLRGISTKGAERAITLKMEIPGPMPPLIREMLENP
From the text: as §1, with “(See Cheng et al. Biochemical Pharmacology Vol. 22 pp 3099-3108, expressly incorporated herein by reference.)” left out
as §2, with “This standard compound is described in U.S. Pat. No. 6,114,533.” left out
as §4

RXRγ [2] = biological target: T1, RXRγ; experiment: ligand binding assay, RXRγ; conditions: Table 9 (Formula F); read-out: RXR γ Kd
From the text: as §1, §4

RARα = biological target: T3, RARα (Homo sapiens, UniProt P10276); experiment: chimeric receptor transactivation assay, RARα; type: cell-based
T3 sequence (P10276 183-417 limits assumed): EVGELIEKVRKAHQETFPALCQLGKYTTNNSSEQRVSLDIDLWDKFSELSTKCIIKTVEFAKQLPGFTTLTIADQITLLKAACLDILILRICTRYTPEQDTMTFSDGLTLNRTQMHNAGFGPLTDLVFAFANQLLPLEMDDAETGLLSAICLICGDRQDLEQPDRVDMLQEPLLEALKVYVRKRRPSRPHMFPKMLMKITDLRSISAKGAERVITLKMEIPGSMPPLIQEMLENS
From the text: as §1, §2, §3, §4

| EC50 (RXRγ [1]) | RXR Trans. efficacy (number in parentheses) γ (RXRγ [1]) | EC50 (RARγ) | Kd (RXRγ [2]) | EC50 (RARα; chimeric receptor transactivation, read-out: RAR Trans. EC50 α) | Emax (RARα; percentage compared to the standard compound, read-out: RAR Trans. efficacy (number in parentheses) α) | SMILES |
| --- | --- | --- | --- | --- | --- | --- |
| 51 nM | 109% | > 10000 nM |  |  |  | CCOc1cc2c(cc1\C(C)=C(F)/C=C/C(C)=C/C(=O)O)C=CCC2(C)C [Compound A-76, (2E,4E,6E)-7-(3-Ethoxy-5,5-dimethyl-5,6-dihydro-naphthalen-2-yl)-6-fluoro-3-methyl-octa-2,4.6-trienoic acid] |
| 41 nM | (73) % | 2 nM |  |  |  | CCOc1cc2c(cc1\C(CC)=C(F)/C=C/C(C)=C/C(=O)O)C=CCC2(C)C [Compound A-77] |
| 0.3 nM | 46% | > 10000 nM | 61 nM | 1 nM | 8% | CCOc1c(\C(CC)=C(F)/C=C/C(C)=C/C(=O)O)cc2c(c1Cl)C(C)(C)CC=C2C(C)C [Compound A-178, (2E,4E,6E)-7-(4-Chloro-3-ethoxy-8-isopropyl-5,5-dimethyl-5,6-dihydronaphthalen-2-yl)-6-fluoro-3-methyl-nona-2,4,6-trienoic acid] |
